Laboratory results reported in PMC4865845, “A human genome-wide loss-of-function screen identifies effective chikungunya antiviral drugs” (Nature Communications, 2016).

Experiments:
HEK-293 cells = test: Cell viability, Cell Proliferation Reagent WST-1; type: cell-based, human; settings: Homo sapiens, HEK293, 18 h, read-out: WST-1 IC50
Experimental: To exclude the possible cytotoxic effects, all compounds were additionally tested using the ‘Cell Proliferation Reagent WST-1' (Roche Diagnostics). HEK-293 cells were treated with the same concentrations of the various substances and 18 h later WST-1 was added. Readout was conducted using the EnVision Multilabel Reader (PerkinElmer).

HeLa cells [1] = test: Cell viability, CellTiter-Glo kit; settings: end of the 1 h infection + 7 h treatment experiment
CHIKV = test: microbe, parasite or virus in culture; type: cell-based, chikungunya virus; settings: Chikungunya virus, HEK293; HEK-293 cells pretreated with dilutions of each drug, CHIKV-GFP, 18 h p.i.
HeLa cells [2] = test: Real-time cell toxicity assay (xCELLigence)
CHIKV C21 [3] = test: Quantitative RT-PCR of cell- and supernatant-associated vRNA; type: cell-based, chikungunya virus; settings: HeLa; for vRNA synthesis (cell-associated vRNA) / viral release in the supernatants (supernatant-associated vRNA): CHIKV C21 MOI 50 for 1 h, then drug 7 h: cerulenin 50 μM, TOFA 25 μM, pimozide 10 μM, W7 20 μM, tivozanib 5 μM; for vRNA replication, delayed treatment / viral release, delayed treatment: CHIKV-infected, drugs from 6 to 8 h p.i.
CHIKV C21 [4] = test: Intradermal CHIKV infection model of neonatal mice; settings: neonatal mice
CHIKV replicon = CHIKV replicon dual-luciferase assay (genomic and subgenomic vRNA expression); type: cell-based, chikungunya virus; settings: HeLa cells, inhibitor from 1 h p.i., read 8 h p.i.
CHIKV C21 [5] = type: in vivo, C57BL/6 mice; settings: adult mice pretreated at least 3 days (pimozide 20 mg kg−1 per os; TOFA 25 mg kg−1 i.p.), 18 h p.i.
CLK1 = CLK1 (Homo sapiens, UniProt P49759); test: CLK1 inhibition by capillary electrophoresis in a microfluidic chip system (LabChip3000); type: biochemical
[6] = system: herpes simplex type 1 strain KOS (HSV-1); type: cell-based, herpes simplex virus 1; settings: HEK-293 cells pretreated 2 h, Fig. 4

CLK1, sequence (P49759 whole entry): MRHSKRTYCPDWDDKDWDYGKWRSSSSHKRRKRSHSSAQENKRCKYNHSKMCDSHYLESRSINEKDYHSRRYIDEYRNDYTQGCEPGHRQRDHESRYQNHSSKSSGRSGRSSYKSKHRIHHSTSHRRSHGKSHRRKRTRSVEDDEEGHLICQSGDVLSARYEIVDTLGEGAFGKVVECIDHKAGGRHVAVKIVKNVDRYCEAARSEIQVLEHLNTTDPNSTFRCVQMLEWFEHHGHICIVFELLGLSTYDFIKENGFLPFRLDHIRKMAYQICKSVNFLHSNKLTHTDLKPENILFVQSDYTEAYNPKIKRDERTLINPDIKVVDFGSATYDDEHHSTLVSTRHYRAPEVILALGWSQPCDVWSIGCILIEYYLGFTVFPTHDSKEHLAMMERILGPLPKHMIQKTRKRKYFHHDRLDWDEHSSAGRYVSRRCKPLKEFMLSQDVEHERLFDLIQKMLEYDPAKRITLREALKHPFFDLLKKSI

SMILES | IC50 (HEK-293 cells) [nM] | cell toxicity (HeLa cells [1]) | IC50 (CHIKV) [nM] | effect on cell viability (HeLa cells [2]) | vRNA synthesis (cell-associated vRNA) (CHIKV C21 [3]) | viral release in the supernatants (supernatant-associated vRNA) (CHIKV C21 [3]) | vRNA replication, delayed treatment (CHIKV C21 [3]) | viral release, delayed treatment (CHIKV C21 [3]) | impact on mouse growth (CHIKV C21 [4]) | genomic and subgenomic vRNA synthesis (CHIKV replicon) | CHIKV titres in the footpad (replication) (CHIKV C21 [5]) | melting point [°C] | IC50 (CLK1) [nM] | antiviral effect on HSV-1 [6]
CCCCCCCCCCCCCCOc1ccc(C(=O)O)o1 [TOFA, 5-tetradecyloxy-2-furoic acid] | > 60000 | no detectable cell toxicity | 150 | no deleterious effect on cell viability | significantly reduced vRNA synthesis | strongly inhibited viral release | only a minor impact on vRNA replication | major defect in viral release | detectable impact on mouse growth | significant and dose-dependent reduction | significantly reduced replication |  |  | 
C#CCn1c2c(Br)nccc2c2ccc(Cl)c(Cl)c21 [AnnH80, 1-bromo-7,8-dichloro-9-(prop-2-yn-1-yl)-9H-pyrido[3,4-b]indole] |  |  |  |  |  |  |  |  |  |  |  | 190 to 193 | 862 | 
O=c1[nH]c2ccccc2n1C1CCN(CCCC(c2ccc(F)cc2)c2ccc(F)cc2)CC1 [Pimozide] | 19200 | no detectable cell toxicity | 280 |  | significantly reduced vRNA synthesis | strongly inhibited viral release | only a minor impact on vRNA replication | major defect in viral release | detectable impact on mouse growth |  | significantly reduced replication |  |  | antiviral effect
